Experimental data: publication PMC6934700, “Structure-Guided Design of a Fluorescent Probe for the Visualization of FtsZ in Clinically Important Gram-Positive and Gram-Negative Bacterial Pathogens” (Scientific Reports, 2019)
Where two headings read alike, the source gives them in different places.

Legend:
[1] = tested on: FtsZ in S. pneumoniae ATCC 49619 cells; assay: FtsZ visualization by fluorescence microscopy in live cells; type: cell-based, Streptococcus pneumoniae; details: 1 µg/mL for 5 minutes
Experimental: (§1) All differential interference contrast (DIC) and fluorescence microscopy experiments were conducted using an Olympus BX50 microscope equipped with an X-cite Exacte 200 W mercury lamp, a 100× Olympus UPLSAPO oil immersion objective (1.40 aperture), as well as both Chroma ET-EGFP (FITC/Cy2) and ET mCherry, Texas Red filters. Images were captured using a QImaging Retiga R3 charge-coupled device (CCD) camera and the Ocular-Version 2.0 software package (QImaging).
(§2) For visualizing FtsZ in Gram-positive bacteria using BOFP, the bacterial cells were grown to log-phase in media suitable for each individual pathogen. Specifically, S. aureus NRS705 (MRSA) was grown in tryptic soy broth (TSB), E. faecalis ATCC 29212 and E. faecium ATCC 19434 were grown in lactobacilli MRS broth, S. agalactiae ATCC 12386 and S. pneumoniae ATCC 49619 were grown in TH broth, and S. pyogenes ATCC 19615 was grown in CAMH broth supplemented with 3% (v/v) LHB. For each Gram-positive bacterial strain, a total of 1 mL of cell culture was centrifuged at 15,000 × g for 1 minute and washed 2–3 times with 1 mL of PBS. After the final wash, the pelleted cells were resuspended in 500 µL of PBS containing 1 µg/mL of BOFP and incubated in the dark for 5 minutes at room temperature. The cells were then centrifuged at 15,000 × g for 1 minute, washed twice with 1 mL of PBS, and subsequently resuspended in 200 µL of PBS. […]

[2] = tested on: FtsZ in S. agalactiae ATCC 12386 cells; assay: as above; type: cell-based, Streptococcus agalactiae; details: 1 µg/mL for 5 minutes
Experimental: as §1, §2

[3] = molecular target: T1, FtsZ in S. aureus NRS705 cells (Staphylococcus aureus, UniProt P0A031); type: cell-based; details: 1 µg/mL for 5 minutes
T1 construct: endogenous in cells; host or cells: S. aureus NRS705 (USA100 MRSA)
T1 sequence (P0A031 whole entry): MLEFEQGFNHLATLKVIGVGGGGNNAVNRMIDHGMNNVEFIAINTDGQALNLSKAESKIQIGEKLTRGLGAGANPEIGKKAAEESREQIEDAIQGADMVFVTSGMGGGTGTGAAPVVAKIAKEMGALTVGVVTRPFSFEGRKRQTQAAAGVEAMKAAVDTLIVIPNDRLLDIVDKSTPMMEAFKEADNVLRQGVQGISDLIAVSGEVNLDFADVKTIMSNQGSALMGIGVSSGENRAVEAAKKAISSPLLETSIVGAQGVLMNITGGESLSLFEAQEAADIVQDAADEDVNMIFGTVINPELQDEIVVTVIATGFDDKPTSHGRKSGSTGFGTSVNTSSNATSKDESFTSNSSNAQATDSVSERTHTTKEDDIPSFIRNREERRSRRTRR
Experimental: as §1, §2

S. pyogenes (SpyFtsZ) = S. pyogenes (SpyFtsZ) (Streptococcus pyogenes, UniProt Q99YV7); assay: Fluorescence anisotropy binding of BOFP to SpyFtsZ; details: for Kd: 50 mM Tris-HCl (pH 7.6), 50 mM KCl, 0.1 µM BOFP
S. pyogenes (SpyFtsZ), sequence (Q99YV7 entry or part of it): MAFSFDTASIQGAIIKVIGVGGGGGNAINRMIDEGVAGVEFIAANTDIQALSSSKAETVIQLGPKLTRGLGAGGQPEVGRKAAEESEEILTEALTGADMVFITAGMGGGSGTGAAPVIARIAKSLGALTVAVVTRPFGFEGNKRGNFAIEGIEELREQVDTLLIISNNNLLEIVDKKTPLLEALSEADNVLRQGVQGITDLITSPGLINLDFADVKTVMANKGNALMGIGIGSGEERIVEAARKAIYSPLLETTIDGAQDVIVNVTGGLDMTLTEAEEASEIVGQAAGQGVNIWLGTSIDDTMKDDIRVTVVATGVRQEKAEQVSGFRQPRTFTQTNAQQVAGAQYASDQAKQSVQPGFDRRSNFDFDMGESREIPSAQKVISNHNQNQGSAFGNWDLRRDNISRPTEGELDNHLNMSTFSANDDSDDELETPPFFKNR
Experimental: (§3) Fluorescence anisotropy experiments were performed using an AVIV model ATF105 spectrofluorometer at 15, 25, or 37 °C. In these experiments, bandwidths were set to 4 nm in both the excitation and emission directions, with the excitation and emission wavelengths being set at 488 nm and 510 nm, respectively. BOFP (0.1 µM) was titrated with increasing concentrations (ranging from 0 to 12 µM) of FtsZ in 120 µL of buffer containing 50 mM Tris-HCl (pH 7.6) and 50 mM KCl. After each protein addition, the samples were equilibrated for 3 minutes, whereupon the fluorescence anisotropy was measured.
(§4) In this equation, r0 is the anisotropy of the protein-free compound, r∞ is the anisotropy of the compound in the presence of an infinite concentration of FtsZ, [C]tot is the total concentration of the compound, and [P]tot is the total concentration of protein with each addition. These analyses yielded the equilibrium dissociation constant (Kd) for each binding reaction.
(§5) The binding free energy (ΔG) at temperature T was derived from the corresponding Kd value determined at T using the following relationship:2 ΔG=−RTln(1/Kd)
(§6) The binding enthalpy (ΔH) and entropy (ΔS) were derived from linear fits of the ln(1/Kd) vs. 1/T plots shown in Figs. 3f and 5e using the following relationship:3 ln(1/Kd)=−ΔH/R(1/T)+ΔS/R
(§7) In comparative control experiments, the anisotropy of 0.1 µM BODIPY FL-COOH or BOFP alone or in the presence of SaFtsZ (10 µM), SpyFtsZ (10 µM), KpFtsZ (2 µM), or PaFtsZ (2 µM) was measured at 37 °C in the same buffer described above.

P. aeruginosa (PaFtsZ) = molecular target: T2, P. aeruginosa (PaFtsZ) (Pseudomonas aeruginosa, UniProt P47204); assay: Fluorescence anisotropy binding of BOFP to PaFtsZ; details: for Kd: 50 mM Tris-HCl (pH 7.6), 50 mM KCl, 0.1 µM BOFP
T2 construct: 6xHis (C); made in house; host or cells: E. coli BLR (DE3), pET-22b(+)
T2 sequence (P47204 1-394): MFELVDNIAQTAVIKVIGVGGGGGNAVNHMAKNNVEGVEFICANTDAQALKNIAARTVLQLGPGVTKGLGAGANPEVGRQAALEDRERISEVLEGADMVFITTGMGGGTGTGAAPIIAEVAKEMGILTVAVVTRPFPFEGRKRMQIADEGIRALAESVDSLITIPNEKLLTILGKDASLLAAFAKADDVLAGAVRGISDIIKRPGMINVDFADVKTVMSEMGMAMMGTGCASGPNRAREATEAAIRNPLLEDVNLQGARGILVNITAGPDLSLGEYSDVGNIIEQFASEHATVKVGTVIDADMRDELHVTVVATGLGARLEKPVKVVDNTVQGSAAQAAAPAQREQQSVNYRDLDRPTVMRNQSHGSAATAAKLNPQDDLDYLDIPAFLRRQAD
Experimental: as §3, §4, §5, §6, §7

[4] = calculated at T = 310 K (37 °C) from Kd
[5] = from linear fit of ln(1/Kd) vs. 1/T

In the case of `CC1=CC(C)=[N+]2C1=Cc1ccc(CCC(=O)OCC(Oc3ccc(F)c(C(N)=O)c3F)c3nc(-c4ccc(C(F)(F)F)cc4)c(Br)o3)n1[B-]2(F)F` (stereo not shown) [BOFP], the “Fluorescence staining / FtsZ labeling in live cells” value [1] is reported as “bright bands of fluorescence staining are clearly visible at midcell”, the “Fluorescence staining / FtsZ labeling in live cells” value [2] is reported as “bright bands of fluorescence staining are clearly visible at midcell” and the “Fluorescence staining / FtsZ labeling in live cells” value [3] is reported as “bright bands of fluorescence staining are clearly visible at midcell”. The Kd (S. pyogenes (SpyFtsZ); 15 °C, read-out: Kd - 15 °C) was 910 ± 60 nM, the Kd (S. pyogenes (SpyFtsZ); 25 °C, read-out: Kd - 25 °C) was 1310 ± 80 nM and the Kd (S. pyogenes (SpyFtsZ); 37 °C, read-out: Kd - 37 °C) was 1550 ± 80 nM. The ΔG (S. pyogenes (SpyFtsZ); [4]) was -8.2 ± 0.1 kcal/mol, the ΔH (S. pyogenes (SpyFtsZ); [5]) was -4.3 ± 1.1 kcal/mol and the Kd (P. aeruginosa (PaFtsZ); 15 °C, read-out: Kd - 15 °C) was 230 ± 20 nM. The Kd (P. aeruginosa (PaFtsZ); 25 °C, read-out: Kd - 25 °C) was 360 ± 60 nM, the Kd (P. aeruginosa (PaFtsZ); 37 °C, read-out: Kd - 37 °C) was 580 ± 60 nM and the ΔG (P. aeruginosa (PaFtsZ); [4]) was -8.8 ± 0.1 kcal/mol. The ΔH (P. aeruginosa (PaFtsZ); [5]) was -7.7 ± 0.2 kcal/mol.
